Laboratory results: ChEMBL document CHEMBL2346657, “Synthesis of novel 2-amino-4-(5'-substituted 2'-phenyl-1H-indol-3'-yl)-6-aryl-4H-pyran-3-carbonitrile derivatives as antimicrobial and antioxidant agents” (2013)
The source made the active and inactive calls.

Test system: Escherichia coli
Assay: Antimicrobial activity against Escherichia coli MTCC 723 at 500 ug/ml after 24 hrs by cup plate method
Assay type: functional
Details: MTCC 723, 24 h, read-out: IZ

SMILES	zone of inhibition at 500 µg/mL
Cc1ccc(C2=CC(c3c(-c4ccccc4)[nH]c4ccccc34)C(C#N)=C(N)O2)cc1 (stereo unspecified)	10 mm

Test system: Pseudomonas aeruginosa
Assay: Antimicrobial activity against Pseudomonas aeruginosa MTCC 1688 at 750 ug/ml after 24 hrs by cup plate method
Assay type: functional
Details: MTCC 1688, 24 h, read-out: IZ

SMILES	zone of inhibition at 750 µg/mL
Cc1ccc(C2=CC(c3c(-c4ccccc4)[nH]c4ccccc34)C(C#N)=C(N)O2)cc1 (stereo unspecified)	8 mm

Test system: Escherichia coli
Assay: Antimicrobial activity against Escherichia coli MTCC 723 at 1000 ug/ml after 24 hrs by cup plate method
Assay type: functional
Details: MTCC 723, 24 h, read-out: IZ

SMILES	zone of inhibition at 1000 µg/mL
Cc1ccc(C2=CC(c3c(-c4ccccc4)[nH]c4ccccc34)C(C#N)=C(N)O2)cc1 (stereo unspecified)	10 mm

Test system: Aspergillus flavus
Assay: Antimicrobial activity against Aspergillus flavus MTCC 1973 at 1000 ug/ml after 72 hrs by cup plate method
Assay type: functional
Details: MTCC 1973, 72 h, read-out: IZ

SMILES	zone of inhibition at 1000 µg/mL
Cc1ccc(C2=CC(c3c(-c4ccccc4)[nH]c4ccccc34)C(C#N)=C(N)O2)cc1 (stereo unspecified)	10 mm

Test system: Aspergillus flavus
Assay: Antimicrobial activity against Aspergillus flavus MTCC 1973 at 500 ug/ml after 72 hrs by cup plate method
Assay type: functional
Details: MTCC 1973, 72 h, read-out: IZ

SMILES	zone of inhibition at 500 µg/mL
Cc1ccc(C2=CC(c3c(-c4ccccc4)[nH]c4ccccc34)C(C#N)=C(N)O2)cc1 (stereo unspecified)	8 mm

Test system: Aspergillus niger
Assay: Antimicrobial activity against Aspergillus niger MTCC 281 at 500 ug/ml after 72 hrs by cup plate method
Assay type: functional
Details: MTCC 281, 72 h, read-out: IZ

SMILES	zone of inhibition at 500 µg/mL
Cc1ccc(C2=CC(c3c(-c4ccccc4)[nH]c4ccccc34)C(C#N)=C(N)O2)cc1 (stereo unspecified)	8 mm

Test system: Aspergillus oryzae
Assay: Antimicrobial activity against Aspergillus oryzae MTCC 3567 at 750 ug/ml after 72 hrs by cup plate method
Assay type: functional
Details: MTCC 3567, 72 h, read-out: IZ

SMILES	zone of inhibition at 750 µg/mL
Cc1ccc(C2=CC(c3c(-c4ccccc4)[nH]c4ccccc34)C(C#N)=C(N)O2)cc1 (stereo unspecified)	9 mm

Test system: Aspergillus niger
Assay: Antimicrobial activity against Aspergillus niger MTCC 281 at 750 ug/ml after 72 hrs by cup plate method
Assay type: functional
Details: MTCC 281, 72 h, read-out: IZ

SMILES	zone of inhibition at 750 µg/mL
Cc1ccc(C2=CC(c3c(-c4ccccc4)[nH]c4ccccc34)C(C#N)=C(N)O2)cc1 (stereo unspecified)	8 mm

Test system: Klebsiella pneumoniae
Assay: Antimicrobial activity against Klebsiella pneumoniae NCTC 13368 at 750 ug/ml after 24 hrs by cup plate method
Assay type: functional
Details: NCTC 13368, 24 h, read-out: IZ

SMILES	zone of inhibition at 750 µg/mL
Cc1ccc(C2=CC(c3c(-c4ccccc4)[nH]c4ccccc34)C(C#N)=C(N)O2)cc1 (stereo unspecified)	6 mm

Test system: Aspergillus terreus
Assay: Antimicrobial activity against Aspergillus terreus MTCC 1782 at 750 ug/ml after 72 hrs by cup plate method
Assay type: functional
Details: MTCC 1782, 72 h, read-out: IZ

SMILES	zone of inhibition at 750 µg/mL
Cc1ccc(C2=CC(c3c(-c4ccccc4)[nH]c4ccccc34)C(C#N)=C(N)O2)cc1 (stereo unspecified)	6 mm

Test system: Aspergillus oryzae
Assay: Antimicrobial activity against Aspergillus oryzae MTCC 3567 at 500 ug/ml after 72 hrs by cup plate method
Assay type: functional
Details: MTCC 3567, 72 h, read-out: IZ

SMILES	zone of inhibition at 500 µg/mL
Cc1ccc(C2=CC(c3c(-c4ccccc4)[nH]c4ccccc34)C(C#N)=C(N)O2)cc1 (stereo unspecified)	5 mm

Test system: Staphylococcus aureus
Assay: Antimicrobial activity against Staphylococcus aureus ATCC 29513 at 1000 ug/ml after 24 hrs by cup plate method
Assay type: functional
Details: ATCC 29513, 24 h, read-out: IZ

SMILES	zone of inhibition at 1000 µg/mL
Cc1ccc(C2=CC(c3c(-c4ccccc4)[nH]c4ccccc34)C(C#N)=C(N)O2)cc1 (stereo unspecified)	0 mm

Test system: Escherichia coli
Assay: Antimicrobial activity against Escherichia coli MTCC 723 at 750 ug/ml after 24 hrs by cup plate method
Assay type: functional
Details: MTCC 723, 24 h, read-out: IZ

SMILES	zone of inhibition at 750 µg/mL
Cc1ccc(C2=CC(c3c(-c4ccccc4)[nH]c4ccccc34)C(C#N)=C(N)O2)cc1 (stereo unspecified)	10 mm

Test system: Aspergillus oryzae
Assay: Antimicrobial activity against Aspergillus oryzae MTCC 3567 at 1000 ug/ml after 72 hrs by cup plate method
Assay type: functional
Details: MTCC 3567, 72 h, read-out: IZ

SMILES	zone of inhibition at 1000 µg/mL
Cc1ccc(C2=CC(c3c(-c4ccccc4)[nH]c4ccccc34)C(C#N)=C(N)O2)cc1 (stereo unspecified)	8 mm

Test system: not listed separately
Assay: Antioxidant activity assessed as ferric ion reducing activity at 100 ug/ml by FRAP assay
Assay type: functional
Details: not given

SMILES	Activity
Cc1ccc(C2=CC(c3c(-c4ccccc4)[nH]c4ccccc34)C(C#N)=C(N)O2)cc1 (stereo unspecified)	Active

Test system: Pseudomonas aeruginosa
Assay: Antimicrobial activity against Pseudomonas aeruginosa MTCC 1688 at 500 ug/ml after 24 hrs by cup plate method
Assay type: functional
Details: MTCC 1688, 24 h, read-out: IZ

SMILES	zone of inhibition at 500 µg/mL
Cc1ccc(C2=CC(c3c(-c4ccccc4)[nH]c4ccccc34)C(C#N)=C(N)O2)cc1 (stereo unspecified)	9 mm

Test system: not listed separately
Assay: Antioxidant activity assessed as metal chelating activity by measuring inhibition of ferrozine-Fe2+ complex formation at 25 to 100 ug/ml
Assay type: functional
Details: not given

SMILES	Activity
Cc1ccc(C2=CC(c3c(-c4ccccc4)[nH]c4ccccc34)C(C#N)=C(N)O2)cc1 (stereo unspecified)	Active

Test system: Staphylococcus aureus
Assay: Antimicrobial activity against Staphylococcus aureus ATCC 29513 at 500 ug/ml after 24 hrs by cup plate method
Assay type: functional
Details: ATCC 29513, 24 h, read-out: IZ

SMILES	zone of inhibition at 500 µg/mL
Cc1ccc(C2=CC(c3c(-c4ccccc4)[nH]c4ccccc34)C(C#N)=C(N)O2)cc1 (stereo unspecified)	0 mm

Test system: Aspergillus niger
Assay: Antimicrobial activity against Aspergillus niger MTCC 281 at 1000 ug/ml after 72 hrs by cup plate method
Assay type: functional
Details: MTCC 281, 72 h, read-out: IZ

SMILES	zone of inhibition at 1000 µg/mL
Cc1ccc(C2=CC(c3c(-c4ccccc4)[nH]c4ccccc34)C(C#N)=C(N)O2)cc1 (stereo unspecified)	8 mm

Test system: Klebsiella pneumoniae
Assay: Antimicrobial activity against Klebsiella pneumoniae NCTC 13368 at 1000 ug/ml after 24 hrs by cup plate method
Assay type: functional
Details: NCTC 13368, 24 h, read-out: IZ

SMILES	zone of inhibition at 1000 µg/mL
Cc1ccc(C2=CC(c3c(-c4ccccc4)[nH]c4ccccc34)C(C#N)=C(N)O2)cc1 (stereo unspecified)	5 mm

Test system: Aspergillus terreus
Assay: Antimicrobial activity against Aspergillus terreus MTCC 1782 at 500 ug/ml after 72 hrs by cup plate method
Assay type: functional
Details: MTCC 1782, 72 h, read-out: IZ

SMILES	zone of inhibition at 500 µg/mL
Cc1ccc(C2=CC(c3c(-c4ccccc4)[nH]c4ccccc34)C(C#N)=C(N)O2)cc1 (stereo unspecified)	8 mm

Test system: Klebsiella pneumoniae
Assay: Antimicrobial activity against Klebsiella pneumoniae NCTC 13368 at 500 ug/ml after 24 hrs by cup plate method
Assay type: functional
Details: NCTC 13368, 24 h, read-out: IZ

SMILES	zone of inhibition at 500 µg/mL
Cc1ccc(C2=CC(c3c(-c4ccccc4)[nH]c4ccccc34)C(C#N)=C(N)O2)cc1 (stereo unspecified)	8 mm

Test system: Staphylococcus aureus
Assay: Antimicrobial activity against Staphylococcus aureus ATCC 29513 at 750 ug/ml after 24 hrs by cup plate method
Assay type: functional
Details: ATCC 29513, 24 h, read-out: IZ

SMILES	zone of inhibition at 750 µg/mL
Cc1ccc(C2=CC(c3c(-c4ccccc4)[nH]c4ccccc34)C(C#N)=C(N)O2)cc1 (stereo unspecified)	0 mm

Test system: Aspergillus terreus
Assay: Antimicrobial activity against Aspergillus terreus MTCC 1782 at 1000 ug/ml after 72 hrs by cup plate method
Assay type: functional
Details: MTCC 1782, 72 h, read-out: IZ

SMILES	zone of inhibition at 1000 µg/mL
Cc1ccc(C2=CC(c3c(-c4ccccc4)[nH]c4ccccc34)C(C#N)=C(N)O2)cc1 (stereo unspecified)	5 mm

Test system: Pseudomonas aeruginosa
Assay: Antimicrobial activity against Pseudomonas aeruginosa MTCC 1688 at 1000 ug/ml after 24 hrs by cup plate method
Assay type: functional
Details: MTCC 1688, 24 h, read-out: IZ

SMILES	zone of inhibition at 1000 µg/mL
Cc1ccc(C2=CC(c3c(-c4ccccc4)[nH]c4ccccc34)C(C#N)=C(N)O2)cc1 (stereo unspecified)	6 mm

Test system: Aspergillus flavus
Assay: Antimicrobial activity against Aspergillus flavus MTCC 1973 at 750 ug/ml after 72 hrs by cup plate method
Assay type: functional
Details: MTCC 1973, 72 h, read-out: IZ

SMILES	zone of inhibition at 750 µg/mL
Cc1ccc(C2=CC(c3c(-c4ccccc4)[nH]c4ccccc34)C(C#N)=C(N)O2)cc1 (stereo unspecified)	9 mm
